From the supplement of paper PMC10307832

What was measured:
Experiment in all cases: relative viability (nuclei count vs DMSO), 5 days (fraction); higher = more cells survive
[1] = compound: CN(NC(=O)CC(=O)NN(C)C(=S)c1ccccc1)C(=S)c1ccccc1 [Elesclomol] + CC(=O)c1c(C)c2cnc(Nc3ccc(N4CCNCC4)cn3)nc2n(C2CCCC2)c1=O [Palbociclib] (partner 0.5 µM)
In short: (§1)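 Lung cancer cell lines were seeded in 1536-well plates and dosed by pin tool the next day, with either a single drug or a fixed anchor-drug dose combined with five library-drug doses (not always all listed) spaced in √10 steps. Five days later, one step fixed the cells and stained their nuclei (final 0.05% Triton X-100, 1% formaldehyde, 1 ug/ml Hoechst), and nuclei were counted on 4× images. Relative viability is the nuclei count in treated wells divided by the count in vehicle wells, and each value is the median of duplicate plates.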

[2] = compound: CN(NC(=O)CC(=O)NN(C)C(=S)c1ccccc1)C(=S)c1ccccc1 [Elesclomol] + CCNC(=O)c1noc(-c2cc(C(C)C)c(O)cc2O)c1-c1ccc(CN2CCOCC2)cc1 [Luminespib] (partner 0.01 µM)
In short: as §1

[3] = compound: CN(NC(=O)CC(=O)NN(C)C(=S)c1ccccc1)C(=S)c1ccccc1 [Elesclomol] + C[C@]1(O)C[C@@H](c2nc(-c3ccc4ccc(-c5ccccc5)nc4c3)c3c(N)nccn32)C1 [Linsitinib] (partner 1 µM)
In short: as §1

[4] = compound: CN(NC(=O)CC(=O)NN(C)C(=S)c1ccccc1)C(=S)c1ccccc1 [Elesclomol] + NC(=O)Nc1cc(-c2cccc(F)c2)sc1C(=O)N[C@H]1CCCNC1 [AZD7762] (partner 0.2 µM)
In short: as §1

[5] = compound: CN(NC(=O)CC(=O)NN(C)C(=S)c1ccccc1)C(=S)c1ccccc1 [Elesclomol] + O=C(c1cc(Cc2n[nH]c(=O)c3ccccc23)ccc1F)N1CCN(C(=O)C2CC2)CC1 [Olaparib] (partner 8 µM)
In short: as §1

| Cell Line | relative viability ([1]; first compound 0.003162 µM) | relative viability ([1]; first compound 0.01 µM) | relative viability ([1]; first compound 0.03162 µM) | relative viability ([1]; first compound 0.1 µM) | relative viability ([2]; first compound 0.003162 µM) | relative viability ([2]; first compound 0.01 µM) | relative viability ([2]; first compound 0.03162 µM) | relative viability ([2]; first compound 0.1 µM) | relative viability ([3]; first compound 0.003162 µM) | relative viability ([3]; first compound 0.01 µM) | relative viability ([3]; first compound 0.03162 µM) | relative viability ([3]; first compound 0.1 µM) | relative viability ([4]; first compound 0.003162 µM) | relative viability ([4]; first compound 0.01 µM) | relative viability ([4]; first compound 0.03162 µM) | relative viability ([4]; first compound 0.1 µM) | relative viability ([5]; first compound 0.003162 µM) | relative viability ([5]; first compound 0.01 µM) | relative viability ([5]; first compound 0.03162 µM) | relative viability ([5]; first compound 0.1 µM) |
| --- | --- | --- | --- | --- | --- | --- | --- | --- | --- | --- | --- | --- | --- | --- | --- | --- | --- | --- | --- | --- |
| HCC-827 | 0.471 | 0.436 | 0.428 | 0.626 | 0.586 | 0.54 | 0.579 | 0.473 | 0.959 | 0.851 | 1.03 | 0.707 | 0.25 | 0.253 | 0.163 | 0.191 | 0.58 | 0.522 | 0.672 | 0.475 |
| HOP-62 | 0.461 | 0.333 | 0.305 | 0.144 | 0.877 | 0.892 | 0.962 | 0.554 | 0.909 | 0.94 | 0.994 | 0.184 | 0.545 | 0.576 | 0.389 | 0.104 | 0.487 | 0.191 | 0.0744 | 0.08 |
| IA-LM |  |  |  |  |  |  |  |  | 0.47 | 0.265 | 0.134 | 0.022 |  |  |  |  | 0.892 | 0.526 | 0.181 | 0.115 |
| LC-2-ad | 0.482 | 0.409 | 0.223 | 0.193 | 0.497 | 0.47 | 0.33 | 0.265 | 0.91 | 0.761 | 0.117 | 0.112 | 0.874 | 0.819 | 0.231 | 0.136 | 0.722 | 0.622 | 0.277 | 0.197 |
| NCI-H520 | 0.254 | 0.213 | 0.183 | 0.0937 | 0.238 | 0.188 | 0.193 | 0.164 | 1.04 | 0.912 | 0.354 | 0.0801 |  |  |  |  | 0.333 | 0.32 | 0.152 | 0.0887 |
| NCI-H596 |  |  |  |  | 0.845 | 0.924 | 0.787 | 0.186 | 1.12 | 1.13 | 0.978 | 0.267 | 1.19 | 0.943 | 0.927 | 0.252 | 0.672 | 0.608 | 0.503 | 0.258 |
| NCI-H661 | 0.408 | 0.337 | 0.235 | 0.181 | 0.845 | 0.326 | 0.282 | 0.214 | 0.55 | 0.242 | 0.169 | 0.145 |  |  |  |  | 0.702 | 0.464 | 0.271 | 0.186 |
| NCI-H1563 |  |  |  |  | 0.518 | 0.472 | 0.471 | 0.432 | 0.817 | 0.705 | 0.632 | 0.468 |  |  |  |  |  |  |  |  |
| NCI-H1650 | 0.234 | 0.155 | 0.104 | 0.0955 | 0.156 | 0.206 | 0.201 | 0.148 |  |  |  |  |  |  |  |  | 0.583 | 0.291 | 0.145 | 0.0879 |
| NCI-H1703 |  |  |  |  |  |  |  |  | 0.179 | 0.122 | 0.0723 | 0.0652 | 0.132 | 0.0974 | 0.124 | 0.0978 | 0.173 | 0.0985 | 0.093 | 0.0575 |
| NCI-H2009 | 0.224 | 0.172 | 0.116 | 0.0798 | 0.977 | 0.494 | 0.167 | 0.116 | 1.25 | 0.677 | 0.183 | 0.142 |  |  |  |  | 0.643 | 0.515 | 0.128 | 0.109 |
| NCI-H2023 | 0.355 | 0.124 | 0.0385 | 0.0417 | 0.658 | 0.376 | 0.134 | 0.0435 | 0.697 | 0.319 | 0.209 | 0.0484 |  |  |  |  | 0.465 | 0.272 | 0.143 | 0.102 |
| NCI-H2170 | 0.396 | 0.358 | 0.358 | 0.29 | 0.735 | 0.624 | 0.646 | 0.435 |  |  |  |  | 0.896 | 0.846 | 0.852 | 0.493 | 0.55 | 0.558 | 0.638 | 0.344 |
| NCI-H2228 | 0.676 | 0.513 | 0.225 | 0.0449 | 0.163 | 0.152 | 0.123 | 0.0703 | 0.694 | 0.541 | 0.365 | 0.0338 |  |  |  |  | 0.537 | 0.365 | 0.195 | 0.0479 |
| NCI-H2342 | 0.495 | 0.489 | 0.517 | 0.411 | 0.665 | 0.551 | 0.391 | 0.322 |  |  |  |  | 0.385 | 0.461 | 0.4 | 0.441 | 0.476 | 0.37 | 0.434 | 0.367 |
| SK-LU-1 | 0.35 | 0.305 | 0.344 | 0.388 | 0.206 | 0.193 | 0.158 | 0.124 | 1.11 | 0.835 | 0.405 | 0.12 |  |  |  |  | 0.468 | 0.373 | 0.378 | 0.249 |
| SK-MES-1 | 0.325 | 0.291 | 0.221 | 0.184 | 0.922 | 0.713 | 0.274 | 0.295 | 1.04 | 0.814 | 0.992 | 0.62 |  |  |  |  | 0.713 | 0.656 | 0.339 | 0.231 |
| SW 900 | 0.531 | 0.453 | 0.168 | 0.0979 | 0.173 | 0.132 | 0.17 | 0.139 |  |  |  |  | 0.709 | 0.54 | 0.272 | 0.103 | 0.774 | 0.596 | 0.264 | 0.0917 |
| SW 1573 | 0.269 | 0.104 | 0.0985 | 0.0326 | 0.154 | 0.0972 | 0.0704 | 0.0142 | 0.706 | 0.224 | 0.116 | 0.102 |  |  |  |  | 0.201 | 0.146 | 0.0695 | 0.0085 |
| UMC-11 | 0.321 | 0.275 | 0.29 | 0.249 | 1.04 | 1.02 | 0.604 | 0.413 | 1.02 | 1.05 | 0.672 | 0.615 |  |  |  |  | 0.54 | 0.338 | 0.279 | 0.266 |
